Laboratory results: patent US20250171426A1, “PYRIMIDINEDIONE-BASED COMPOUNDS AS AXL, C-MET, AND MER INHIBITORS AND METHODS OF USE THEREOF” (CMG Pharmaceutical Co., Ltd., priority 2022, published 2025)

How the values were obtained:
HCC827OR = assay: Cell viability assay (CellTiter-Glo 2.0), osimertinib-resistant HCC827/OR cells; format: cell-based, human
From the text: (§1) To explore c-MET and AXL mechanisms of EGFR TKI resistance, resistant cells of the EGFR TKI hypersensitive EGFR exon 19 mutant NSCLC cell line, HCC827 and PC9 were generated by exposing these cells to increasing concentrations of EGFR TKI for over 3 months.
(§2) Gefitinib-resistant cells were referred to as HCC827/GR. […] Osimertinib-resistant cells were referred to as HCC827/OR.

PC9ER = assay: Cell viability assay (CellTiter-Glo 2.0), erlotinib-resistant PC9/ER cells; format: cell-based; conditions: 72 h, combination of EGFR TKI and inhibitor of Formula (I), read-out: Relative cell viability, IC50 (nM) PC9ER
From the text: as §1, §2

HCC827ER = assay: Cell viability assay (CellTiter-Glo 2.0), erlotinib-resistant HCC827/ER cells; format: cell-based, human; conditions: 72 h, combination of EGFR TKI and inhibitor of Formula (I), read-out: Relative cell viability, IC50 (nM) HCC827ER
From the text: as §1, §2

HCC827GR = assay: Cell viability assay (CellTiter-Glo 2.0), gefitinib-resistant HCC827/GR cells; format: cell-based, human; conditions: 72 h, combination of EGFR TKI and inhibitor of Formula (I), read-out: Relative cell viability, IC50 (nM) HCC827GR
From the text: as §1
The human cell line HCC827 was purchased from the American Type Culture Collection (Manassas, VA), and the PC9 cell line was obtained from RIKEN Cell Bank (Ibaraki, Japan). […] Gefitinib-resistant cells were referred to as HCC827/GR. […] Osimertinib-resistant cells were referred to as HCC827/OR.
(§3) Cell viability assays were carried out by plating 1,000 cells per well of HCC827 or PC9 resistant cells, respectively, into white transparent-bottom 384-well plates. The cells were treated with each TKI across a 10-dose range from 1 nM to 10,000 nM. After 72 h of drug treatment, cell viability was measured using the CellTiter-Glo 2.0 assay (Promega, Madison, WI).
as §3

MER = biological target: T1, MER (Homo sapiens, UniProt Q12866); assay: Enzymatic assay (ADP-Glo kinase reaction), MER; format: biochemical; conditions: 10 μM ATP, 60 min, ADP-GLO luminescence
T1 sequence (Q12866 21-999): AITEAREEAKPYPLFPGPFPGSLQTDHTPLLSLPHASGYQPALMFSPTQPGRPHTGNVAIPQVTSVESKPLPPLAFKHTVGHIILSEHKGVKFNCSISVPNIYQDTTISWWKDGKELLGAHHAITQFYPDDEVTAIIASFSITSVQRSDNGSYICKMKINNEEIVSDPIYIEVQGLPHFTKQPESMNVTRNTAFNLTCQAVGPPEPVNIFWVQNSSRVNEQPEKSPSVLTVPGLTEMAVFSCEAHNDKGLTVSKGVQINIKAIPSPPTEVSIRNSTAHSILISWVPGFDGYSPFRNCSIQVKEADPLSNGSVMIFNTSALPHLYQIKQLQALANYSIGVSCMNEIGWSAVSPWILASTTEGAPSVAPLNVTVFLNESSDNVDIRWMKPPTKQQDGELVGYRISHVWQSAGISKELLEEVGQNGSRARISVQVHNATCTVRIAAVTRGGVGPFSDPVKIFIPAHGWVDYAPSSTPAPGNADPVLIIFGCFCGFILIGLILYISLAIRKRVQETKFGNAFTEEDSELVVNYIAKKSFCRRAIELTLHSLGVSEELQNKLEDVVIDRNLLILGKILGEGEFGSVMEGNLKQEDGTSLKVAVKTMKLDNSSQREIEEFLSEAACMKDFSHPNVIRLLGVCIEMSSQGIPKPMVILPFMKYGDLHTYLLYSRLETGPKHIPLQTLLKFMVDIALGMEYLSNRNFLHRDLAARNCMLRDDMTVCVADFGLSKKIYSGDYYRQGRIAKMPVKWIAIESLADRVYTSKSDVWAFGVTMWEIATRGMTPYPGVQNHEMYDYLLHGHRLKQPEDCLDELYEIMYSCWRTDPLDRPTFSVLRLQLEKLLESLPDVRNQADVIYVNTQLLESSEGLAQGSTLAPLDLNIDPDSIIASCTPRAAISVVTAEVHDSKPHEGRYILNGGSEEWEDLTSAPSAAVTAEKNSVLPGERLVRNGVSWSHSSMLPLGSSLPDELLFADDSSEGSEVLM
In short: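 ADP-Glo luminescence assay of MER in tyrosine kinase buffer with 0.2 μg/μL poly(Glu4,Tyr1) substrate and 10 μM ATP. Serially diluted inhibitor reacted 60 min at room temperature. IC50 taken from luminescence after ADP-Glo and detection steps.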

AXL = biological target: T2, AXL (Homo sapiens, UniProt P30530); assay: Enzymatic assay (ADP-Glo kinase reaction), AXL; format: biochemical; conditions: 10 μM ATP, 60 min, ADP-GLO luminescence
T2 sequence (P30530 26-894): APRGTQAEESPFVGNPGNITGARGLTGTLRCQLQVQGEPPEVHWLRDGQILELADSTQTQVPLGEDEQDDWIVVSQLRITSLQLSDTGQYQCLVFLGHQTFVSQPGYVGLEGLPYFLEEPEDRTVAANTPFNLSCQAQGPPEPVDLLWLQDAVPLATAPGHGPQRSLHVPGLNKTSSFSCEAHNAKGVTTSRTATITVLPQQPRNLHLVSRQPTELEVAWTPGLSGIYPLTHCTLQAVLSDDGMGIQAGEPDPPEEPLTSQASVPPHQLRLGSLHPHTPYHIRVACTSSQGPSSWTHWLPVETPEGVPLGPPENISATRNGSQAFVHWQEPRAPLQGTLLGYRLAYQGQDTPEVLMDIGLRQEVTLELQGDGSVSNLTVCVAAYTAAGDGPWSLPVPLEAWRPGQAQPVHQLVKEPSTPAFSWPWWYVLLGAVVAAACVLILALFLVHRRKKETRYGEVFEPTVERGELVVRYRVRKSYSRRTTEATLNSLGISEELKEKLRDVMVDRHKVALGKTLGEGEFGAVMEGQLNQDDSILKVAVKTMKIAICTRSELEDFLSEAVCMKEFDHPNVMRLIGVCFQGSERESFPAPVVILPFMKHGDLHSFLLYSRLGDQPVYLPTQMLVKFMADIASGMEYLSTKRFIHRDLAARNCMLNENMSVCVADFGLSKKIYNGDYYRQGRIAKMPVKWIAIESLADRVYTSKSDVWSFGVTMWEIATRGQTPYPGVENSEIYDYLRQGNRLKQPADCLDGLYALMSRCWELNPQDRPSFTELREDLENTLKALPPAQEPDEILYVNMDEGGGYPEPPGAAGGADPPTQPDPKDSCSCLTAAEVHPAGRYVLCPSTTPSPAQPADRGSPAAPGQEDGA
In short: (§4)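 For both AXL and c-MET, reactions in tyrosine kinase buffer used 0.2 μg/μL poly(Glu4,Tyr1) and 10 μM ATP with serially diluted inhibitor, 60 min at room temperature. ADP formed was read by ADP-Glo luminescence after 40 min reagent incubation.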

c-MET = c-MET (Homo sapiens, UniProt P08581); assay: Enzymatic assay (ADP-Glo kinase reaction), c-MET; format: biochemical; conditions: 10 μM ATP, 60 min, ADP-GLO luminescence
Chain of c-MET (P08581 25-1390): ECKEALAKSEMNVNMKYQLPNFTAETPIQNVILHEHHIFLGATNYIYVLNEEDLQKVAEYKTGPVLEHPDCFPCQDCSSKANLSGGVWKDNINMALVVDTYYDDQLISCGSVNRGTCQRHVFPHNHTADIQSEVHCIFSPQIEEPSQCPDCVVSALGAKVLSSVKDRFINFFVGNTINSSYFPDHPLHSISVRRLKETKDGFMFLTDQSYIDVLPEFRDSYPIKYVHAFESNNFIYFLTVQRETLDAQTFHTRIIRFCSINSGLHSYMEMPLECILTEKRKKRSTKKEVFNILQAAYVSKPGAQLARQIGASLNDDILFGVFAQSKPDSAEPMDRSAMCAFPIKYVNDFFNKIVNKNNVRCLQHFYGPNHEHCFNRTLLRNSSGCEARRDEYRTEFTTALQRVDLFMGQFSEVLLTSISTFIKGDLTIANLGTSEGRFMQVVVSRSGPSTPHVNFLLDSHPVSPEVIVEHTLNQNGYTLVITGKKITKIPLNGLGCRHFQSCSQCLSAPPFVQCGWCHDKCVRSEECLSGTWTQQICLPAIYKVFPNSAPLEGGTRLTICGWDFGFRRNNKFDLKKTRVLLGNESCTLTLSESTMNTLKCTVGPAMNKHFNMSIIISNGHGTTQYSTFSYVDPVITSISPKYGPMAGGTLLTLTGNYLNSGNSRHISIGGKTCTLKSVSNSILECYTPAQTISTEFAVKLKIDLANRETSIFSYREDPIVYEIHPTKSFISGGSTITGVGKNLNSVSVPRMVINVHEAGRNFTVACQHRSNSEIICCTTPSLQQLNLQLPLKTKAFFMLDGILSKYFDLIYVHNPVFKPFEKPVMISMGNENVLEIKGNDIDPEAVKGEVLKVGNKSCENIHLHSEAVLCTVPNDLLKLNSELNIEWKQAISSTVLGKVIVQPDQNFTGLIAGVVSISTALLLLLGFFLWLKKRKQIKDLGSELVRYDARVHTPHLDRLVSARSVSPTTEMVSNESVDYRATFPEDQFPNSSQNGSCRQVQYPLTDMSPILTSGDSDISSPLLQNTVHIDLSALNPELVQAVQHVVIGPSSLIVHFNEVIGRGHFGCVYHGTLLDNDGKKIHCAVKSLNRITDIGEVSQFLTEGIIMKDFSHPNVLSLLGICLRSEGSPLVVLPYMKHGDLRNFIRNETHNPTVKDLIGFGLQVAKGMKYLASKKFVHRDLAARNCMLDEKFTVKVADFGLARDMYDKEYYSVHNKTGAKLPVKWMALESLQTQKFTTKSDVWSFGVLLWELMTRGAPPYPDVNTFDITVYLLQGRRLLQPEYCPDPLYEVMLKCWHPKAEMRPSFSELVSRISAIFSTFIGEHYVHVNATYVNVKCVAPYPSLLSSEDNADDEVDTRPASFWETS
In short: as §4

Row | Molecule | IC50 (HCC827OR; 72 h, combination of EGFR TKI and inhibitor of Formula (I), EGFR TKI-resistant cells, read-out: Relative cell viability, IC50 (nM) HCC827OR) | IC50 (PC9ER) | IC50 (HCC827ER) | IC50 (HCC827GR) | fold higher resistance than the parental cells, HCC827/OR (HCC827OR; HCC827/OR vs HCC827) | IC50 (MER) | IC50 (AXL) | IC50 (c-MET)
1 | N-(4-(2-amino-3-(3-piperidin-4-yl)prop-1-ynyl)pyridin-4-yloxy)-3-fluorophenyl)-3-cyclohexyl-1-ethyl-2,4-dioxo-1,2,3,4-tetrahydropyrimidine-5-carboxamide [Example 65] | < 10000 nM | < 1000 nM | < 1000 nM | < 1000 nM | – | – | – | –
2 | C=CC(=O)Nc1cc(Nc2nccc(-c3cn(C)c4ccccc34)n2)c(OC)cc1N(C)CCN(C)C [osimertinib, reference compound] | – | – | – | – | 3,000 fold | – | – | –
3 | CC(C)n1cc(C(=O)Nc2ccc(Oc3ccnc(N)c3C#CC(=O)N3CCOCC3)c(F)c2)c(=O)n(-c2ccc(F)cc2)c1=O [Example 14, N-(4-(2-amino-3-(3-morpholino-3-oxoprop-1-ynyl)pyridin-4-yloxy)-3-fluorophenyl)-3-(4-fluorophenyl)-1-isopropyl-2,4-dioxo-1,2,3,4-tetrahydropyrimidine-5-carboxamide] | – | – | – | – | – | < 10 nM | < 10 nM | < 10 nM
4 | Cc1nc(Cn2cc(C(=O)Nc3ccc(Oc4ccnc(N)c4C#CC(C)(C)N4CCOCC4)c(F)c3)c(=O)n(-c3ccc(F)cc3)c2=O)cs1 [Example 39, N-(4-((2-amino-3-(3-methyl-3-morpholinobut-1-yn-1-yl)pyridin-4-yl)oxy)-3-fluorophenyl)-3-(4-fluorophenyl)-1-((2-methylthiazol-4-yl)methyl)-2,4-dioxo-1,2,3,4-tetrahydropyrimidine-5-carboxamide] | – | – | – | – | – | < 100 nM | < 100 nM | < 100 nM
5 | Cn1nc(C(=O)Nc2ccc(Oc3ccnc(N)c3C#CCC3CCNCC3)c(F)c2)c(=O)n(-c2ccc(F)cc2)c1=O [Example 46, N-(4-((2-amino-3-(3-(piperidin-4-yl)prop-1-yn-1-yl)pyridin-4-yl)oxy)-3-fluorophenyl)-4-(4-fluorophenyl)-2-methyl-3,5-dioxo-2,3,4,5-tetrahydro-1,2,4-triazine-6-carboxamide] | – | – | – | – | – | < 100 nM | < 10 nM | < 100 nM
6 | CC(C)n1cc(C(=O)Nc2ccc(Oc3ccnc(N)c3-c3ccccc3)c(F)c2)c(=O)n(-c2ccc(F)cc2)c1=O [Example 22, N-(4-(2-amino-3-phenylpyridin-4-yloxy)-3-fluorophenyl)-3-(4-fluorophenyl)-1-isopropyl-2,4-dioxo-1,2,3,4-tetrahydropyrimidine-5-carboxamide] | – | – | – | – | – | < 100 nM | < 100 nM | < 100 nM
7 | CC(C)n1cc(C(=O)Nc2ccc(Oc3ccnc(N)c3C#CC3CCNCC3)c(F)c2)c(=O)n(-c2ccc(F)cc2)c1=O [Example 15, N-(4-(2-amino-3-(piperidin-4-ylethynyl)pyridin-4-yloxy)-3-fluorophenyl)-3-(4-fluorophenyl)-1-isopropyl-2,4-dioxo-1,2,3,4-tetrahydropyrimidine-5-carboxamide] | – | – | – | – | – | < 10 nM | < 10 nM | < 100 nM
8 | CC(C)n1cc(C(=O)Nc2ccc(Oc3ccnc(N)c3-c3cnn(C)c3)c(F)c2)c(=O)n(-c2ccc(F)cc2)c1=O [Example 7] | – | – | – | – | – | < 100 nM | < 10 nM | < 10 nM
9 | CCCn1cc(-c2c(Oc3ccc(NC(=O)c4cn(C(C)C)c(=O)n(-c5ccc(F)cc5)c4=O)cc3F)ccnc2N)cn1 [Example 12, N-(4-(2-amino-3-(1-propyl-1H-pyrazol-4-yl)pyridine-4-yloxy)-3-fluorophenyl)-3-(4-fluorophenyl)-1-isopropyl-2,4-dioxo-1,2,3,4-tetrahydropyrimidine-5-carboxamide] | – | – | – | – | – | < 1000 nM | < 1000 nM | < 10000 nM
10 | Nc1nccc(Oc2ccc(NC(=O)c3cn(C4CCOCC4)c(=O)n(-c4ccc(F)cc4)c3=O)cc2F)c1C#CCN1CCOCC1 [Example 56, N-(4-(2-amino-3-(3-morpholinoprop-1-ynyl)pyridin-4-yloxy)-3-fluorophenyl)-3-(4-fluorophenyl)-2,4-dioxo-1-(tetrahydro-2H-pyran-4-yl)-1,2,3,4-tetrahydropyrimidine-5-carboxamide] | – | – | – | – | – | < 100 nM | < 100 nM | < 100 nM
11 | Nc1nccc(Oc2ccc(NC(=O)c3c[nH]c(=O)n(-c4ccc(F)cc4)c3=O)cc2F)c1C#CCC1CCNCC1 [Example 53, N-(4-(2-amino-3-(3-(piperidin-4-yl)prop-1-ynyl)pyridin-4-yloxy)-3-fluorophenyl)-3-(4-fluorophenyl)-2,4-dioxo-1,2,3,4-tetrahydropyrimidine-5-carboxamide] | – | – | – | – | – | < 10 nM | < 10 nM | < 100 nM
